# Where “and” joins values, the source holds several entries; their conditions need not be identical. Identical values can stand only once. Entries after “also recorded” stand apart in the source; their conditions may differ.
# Columns and labels:
# [1] = Effect on respiration in the unrestrained conscious rat (whole-body plethysmography); format: in vivo; conditions: single iv 0.2, 0.6, 2 mg/kg; over 4 hours post-injection
# Description: The aim of this study was to assess the possible effects of 0.2, 0.6 and 2.0 mg/kg ^175LuPSMA-R2 on respiratory function of conscious rats via a whole-body plethysmography method after intravenous administration according to the study design detailed in Table 3.
# Inspiratory time, expiratory time, peak inspiratory flow, peak expiratory flow, tidal volume, relaxation time, minute volume, respiratory rate and enhanced pause were continuously recorded from approximately 1 hour before dosing up to 4 hours after dosing. Respiratory […] parameters were reported pre-dose and at 5, 15 and 30 minutes and 1, 1.5, 2, 3 and 4 hours after dosing. Clinical signs were recorded on the day of dosing.
# [2] = Plasma protein binding by ultrafiltration, rat plasma; format: in vitro ADME
# Description: (§1) Plasma protein binding of PSMA-R2 and ^175Lu-PSMA-R2 has been determined by ultrafiltration method, after incubation of the compounds in human, mouse, rat and minipig plasma at two different concentrations: 1 and 5 µg/mL.
# [3] = Plasma protein binding by ultrafiltration, mouse plasma; format: in vitro ADME
# Description: as §1
# [4] = Repeated dose (2 weeks) toxicity and toxicokinetic study in the minipig; format: in vivo, minipigs; conditions: for Half-life: mean value per sex
# Description: The tested doses are: 0.058, 0.175 and 0.583 mg/kg/day, that is about 14, 42 and 140 times the PSMA-R2 anticipated human dose.
# Each group included 3 male and 3 female minipigs. Groups 1 and 4 included 2 additional animals per gender to be sacrificed after 2 weeks of recovery.
# All animals were dosed intravenously once a day for 14 consecutive days.
# [5] = test system: Salmonella typhimurium TA1535, TA1537, TA98, TA100; test: Bacterial mutation assay, Salmonella typhimurium; format: cell-based
# Description: The test item ^175Lu-labelled PSMA-R2 solution was examined for the ability to induce gene mutations in tester strains of Salmonella typhimurium and Escherichia coli, as measured by reversion of auxotrophic strains to prototrophy. The five tester strains TA1535, TA1537, TA98, TA100 and WP2 uvrA were used. Experiments were performed both in the absence and presence of metabolic activation, using liver S9 fraction from rats pre-treated with phenobarbital and 5,6-benzoflavone.
# The test item was used as a solution in sodium acetate buffer and all concentrations in this report are expressed in terms of active ingredient. The test item ^175Lu-labelled PSMA-R2 solution was assayed in the toxicity test at a maximum feasible concentration of 1000 µg/plate and at four lower concentrations spaced at approximately half-log intervals: 316, 100, 31.6 and 10.0 µg/plate.
# On the basis of the results obtained in the preliminary toxicity test, in the Main Assay, using the plate incorporation method, the test item was assayed with all tester strains at the following dose levels: 1000, 500, 250, 125 and 62.5 µg/plate. […] Since a clear negative result was obtained, no further experiment was undertaken.
# [6] = Single dose toxicity study in the rat; format: in vivo, Sprague Dawley (SD) rats
# Description: This study aimed at assessing the toxicity of ^175Lu-PSMA-R2 right after acute intravenous injection of 2 or 4 mg/kg among Sprague Dawley (SD) rats.
# Two groups of 30 animals (1:1 male:female ratio) were administered with 2 and 4 mg/kg, respectively. A control group of equal characteristics was treated with the vehicle (Table 5).
# Signs of reaction to treatment at all doses were assessed at 30, 120 and 240 min p.i. as well as 24 h later. At Day 2, 10 rats per gender and per group were sacrificed. The remaining 5 animals/gender/group were observed daily over14 days.
# Body weight was recorded on the day of treatment group allocation, Day 1 (day of injection), 8 and 15. Food consumption was measured on Day 2 and weekly thereafter. At the end of treatment, urine samples were collected for urinalysis. On Day 2 and 15, blood samples withdrawn at sacrifice were screened for clinical pathologies. After dissection, organs were weighted and tissues were treated for microscopic analyses (over 50 different tissues were analyzed).
# [7] = Repeated dose (2 weeks) toxicity and toxicokinetic study in the rat
# Description: The purpose of this study was to investigate the toxicity of ^175Lu-PSMA-R2 in rats after daily intravenous administration for 2 weeks and recovery from any treatment related effects during a 2-week recovery period (main groups).
# The tested doses were 0.13, 0.39 and 1.29 mg/kg/day, that is about 31, 93 and 310 times the PSMA-R2 anticipated human dose.
# Each main treatment group consisted of 10 male and 10 female rats. There were additional 5 male and 5 females included to be sacrificed after 2 weeks of recovery in groups 1 and 4. Two satellite groups (low and mid- dose) for toxicokinetics had 9 male and 9 female animals and one group (high dose) included 12 male and 12 female animals. One additional group (control) comprised 3 male and 3 female animals.
# In this study, the toxicity and the toxicokinetic profile of ^175Lu-PSMA-R2 were investigated in Sprague Dawley rats after daily intravenous administration for 2 weeks at the dosages of 0.13, 0.39 and 1.29 mg/kg/day.
# [8] = daily iv 0.058, 0.175, 0.583 mg/kg/day for 14 days
smiles,measurement,setting,value
O=C(O)CCC(NC(=O)NC(CCCCN(Cc1ccc(Br)cc1)C(=O)CCCCCNC(=O)CN1CCN(CC(=O)O)CCN(CC(=O)O)CCN(CC(=O)O)CC1)C(=O)O)C(=O)O.[175Lu] (stereo not drawn) [^175Lu-PSMA-R2],Changes in respiratory parameters,[1],No changes of toxicological significance were observed in respiratory parameters recorded over 4 hours post-injection.
same,fu (%) fraction unbound,[2]; 1 µg/mL,37.4 ± 4.9%
same,fu (%) fraction unbound,[2]; 5 µg/mL,59.8 ± 4.4%
same,fu (%) fraction unbound,[3]; 1 µg/mL,71.1 ± 4.4%
same,fu (%) fraction unbound,[3]; 5 µg/mL,71.0 ± 2.2%
same,Half-life,"[4]; Day 1, female minipigs",37.8 min
same,Half-life,"[4]; Day 1, male minipigs",42.6 min
same,Accumulation after daily administration,[4]; Day 1 to Day 14,No relevant accumulation
same,"Clinical pathology, gross pathology, terminal body weight, absolute and relative organ weight",[4]; any dose,did not reveal notable or treatment-related changes
same,Histopathology,[4]; any dose,no histopathology treatment-related modifications
same,Body weights and food intake,[4]; [8],unaffected by the treatment
same,Ophthalmoscopy and electrocardiographic examination,[4]; [8],No treatment-related abnormalities
same,Physical examination,[4]; [8],did not show appreciable changes
same,NOAEL,[4]; daily iv for 2 weeks,0.583 mg/kg/day and 0.58 mg/kg/day
same,Increase in systemic exposure (Cmax and AUC0-tlast) with dose,"[4]; minipig, in vivo",approximately dose-proportional
same,"Plasma clearance, dose dependence","[4]; minipig, in vivo",dose-independent
same,Treatment-related effects in treated groups compared to controls,[4]; once a day for 2 weeks,No evidence of treatment-related effects
same,"Toxicity and revertant numbers, preliminary toxicity test","[5]; 10.0-1000 µg/plate, absence or presence of S9","Neither toxicity, nor relevant increases in revertant numbers"
same,"Toxicity and revertant numbers, Main Assay (plate incorporation)","[5]; 62.5-1000 µg/plate, absence or presence of S9","Neither toxicity, nor relevant increases in revertant numbers"
same,Induction of reverse mutation (conclusion),[5]; absence or presence of S9 metabolism,does not induce reverse mutation
same,Mortality,"[6]; high dose (4 mg/kg), 30 min after dosing, no cause of death established",One death
same,Clinical signs immediately after dosing,"[6]; high dose group, dead animal and 5 other animals",Only decreased activity was noted
same,Toxicity signs,[6]; single iv 2 and 4 mg/kg,did not induce toxicity signs; also recorded: No signs of toxicity observed
same,Accumulation after daily administration,[7]; Day 1 to Day 14,No accumulation
same,Half-life,[7]; both sexes and all dose levels,24 to 48 min
same,NOAEL (No Observed Adverse Effect Level),[7]; daily iv for 2 weeks,1.29 mg/kg/day
same,Toxic / treatment-related effects in treated groups compared to controls,[7]; daily iv for 2 weeks,No evidence of treatment-related effects
same,Bodyweight and food consumption,"[7]; rat, in vivo",unaffected by treatment
same,"Clearance, dose dependence","[7]; rat, in vivo",dose-independent
same,Clinical pathology examination,"[7]; rat, in vivo",No findings of toxicological relevance
same,Daily clinical observation,"[7]; rat, in vivo",No signs of toxicological significance
same,Dose proportionality of exposure,"[7]; rat, in vivo",approximately dose proportional
same,NOAEL as multiple of the foreseen human dose,"[7]; rat, in vivo",310 times
same,"Necropsy, organ weights or histopathological examination","[7]; rat, in vivo",No evidence of treatment-related effects
same,Ophthalmoscopy examination,"[7]; rat, in vivo",No anomalies related to treatment
same,Toxic / treatment-related effects in treated groups compared to controls,"[7]; rat, in vivo, iv",no toxic effects

# Source: patent US20230226227A1, “PROSTATE SPECIFIC MEMBRANE ANTIGEN (PSMA) LIGANDS AND USES THEREOF” (ADVANCED ACCELERATOR APPLICATIONS (ITALY) SRL, priority 2019, published 2023)
